Results: patent US11116778B2, “Prodrugs of ALOX-15 inhibitors and methods of using the same” (EMPIRICO INC., priority 2019, dated 2021)

What was measured:
[1] = molecular target: T1, ALOX15 in human nasal epithelial primary cells (HNEpC) (Homo sapiens, UniProt P16050); experiment: ALOX15 metabolite levels (15-HETE, 13-HODE) in human nasal epithelial primary cells; type: cell-based; conditions: 5 μM or 1 μM
T1 construct: host or cells: human nasal epithelial primary cells (HNEpC), treated with IL-13
T1 sequence (P16050 1-662): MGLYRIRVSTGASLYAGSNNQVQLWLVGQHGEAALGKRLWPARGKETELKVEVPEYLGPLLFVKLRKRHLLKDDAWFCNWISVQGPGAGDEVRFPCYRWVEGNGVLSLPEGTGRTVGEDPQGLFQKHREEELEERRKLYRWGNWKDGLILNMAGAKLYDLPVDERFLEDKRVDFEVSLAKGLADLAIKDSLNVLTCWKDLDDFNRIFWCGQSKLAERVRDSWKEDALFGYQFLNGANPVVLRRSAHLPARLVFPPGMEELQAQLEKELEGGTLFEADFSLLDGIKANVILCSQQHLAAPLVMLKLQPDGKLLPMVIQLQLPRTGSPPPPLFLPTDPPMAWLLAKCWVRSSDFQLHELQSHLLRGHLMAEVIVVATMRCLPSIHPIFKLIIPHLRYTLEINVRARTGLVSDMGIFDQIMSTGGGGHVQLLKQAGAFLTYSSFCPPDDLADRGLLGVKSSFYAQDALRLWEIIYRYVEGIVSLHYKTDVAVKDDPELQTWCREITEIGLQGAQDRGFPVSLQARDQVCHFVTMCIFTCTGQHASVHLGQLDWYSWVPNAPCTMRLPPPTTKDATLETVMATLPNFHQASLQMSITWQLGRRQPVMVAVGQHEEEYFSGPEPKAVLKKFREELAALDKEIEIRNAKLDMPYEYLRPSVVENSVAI
Protocol: Human nasal epithelial primary cells (HNEpC) (PromoCell GmbH, Heidelberg, Germany) were cultured according to the manufacturer in provided Primary Cell media in 24 well plates at a density of 25,000 cells per well. Cells were treated with 5 μM or 1 μM of compound 5 or vehicle only (water) in media containing 20 ng/mL IL-13 for 24 hours in a 37° C. cell culture incubator. The following day, media was replaced and fresh media containing 20 ng/mL IL-13 and compound 5 or vehicle was added to each well, then incubated again for 24 hours in a 37° C. cell culture incubator. The process was repeated once more for a 24-hour period.
To determine levels of arachidonic acid and linoleic acid metabolites after compound treatment, cell media was replaced with fresh Primary Cell media without IL-13. ALOX15 substrate (arachidonic acid or linoleic acid) was added to each well at a concentration of 1.5 μM and cells further incubated 37° C. for 1 hour. Media was collected from each well and quenched with an equal volume of LC/MS extraction buffer (methanol, 60 mM ascorbic acid, 0.1% acetic acid).
15-HETE and 13-HODE were quantified using LC-MS/MS (QTrap5500, Applied Biosystems). Q1/Q3 masses: 319.10/219.10 for 15-HETE and 295.10/195.10 Da for 13-HODE. Deuterated 15-HETE (Cayman Chemical) was used as the internal standard. The Q1/Q3 masses are 327.10/184.10 Da for the 15-HETE deuterated standard. […]

[2] = molecular target: T2, 15-lipoxygenase in primary peripheral blood eosinophils (Homo sapiens, UniProt P16050); experiment: Inhibition of 15-lipoxygenase in human primary eosinophils with short-term exposure, 15-HETE LC-MS/MS; conditions: 10 μM for 30 minutes, 3 μM arachidonic acid, 5 minutes
T2 sequence (P16050 1-662): T1 sequence (P16050 1-662)
Protocol: Two independent experiments were performed in which primary peripheral blood eosinophils (StemExpress) were thawed from frozen and allowed to recover in growth media for 4 hours at 37° C. […] Arachidonic acid was added to final concentration of 3 μM and experiment started. At 5 minutes post-treatment, the entire reaction was quenched with an equal volume of extraction buffer (methanol, 60 mM ascorbic acid, 0.1% acetic acid) and 15-HETE quantified. Briefly, 15-HETE was quantified using LC-MS/MS (QTrap5500, Applied Biosystems). […] Deuterated 15-HETE (Cayman Chemical) was used as the internal standard. […] Oxidized fatty acids were extracted using liquid/liquid extraction with acetonitrile as a diluent. Reverse chromatography was performed using a Unison UK-C18 column (Imtakt, 50×3 mm i.d., 3 μm, PN: UK-032) using a water/acetonitrile gradient containing 0.05% ammonium hydroxide and 0.1% formic acid.

15-HETE produced versus vehicle alone (FIG. 4) ([1]; 3 x 24 hours with 20 ng/mL IL-13, then 1.5 μM arachidonic acid 1 hour): less
13-HODE produced versus vehicle alone (FIG. 5) ([1]; 3 x 24 hours with 20 ng/mL IL-13, then 1.5 μM linoleic acid 1 hour): less
less 15-HETE relative to cells treated with vehicle only (FIG. 3) ([2]; Experiment 1): approximately 79%
less 15-HETE relative to cells treated with vehicle only (FIG. 3) ([2]; Experiment 2): 63%
Structure (SMILES): O=C(Nc1ccc(F)cc1Cl)c1nn(COP(=O)(O)O)c(Cl)c1Cl [compound 5, (4,5-dichloro-3-((2-chloro-4-fluorophenyl)carbamoyl)-1H-pyrazol-1-yl)methyl dihydrogen phosphate]
